Test systems include DU-145 prostate; HS 578T breast; MCF7 breast; MOLT-4 leukemia; NCI-H226 lung; NCI-H460 lung; OVCAR-5 ovarian; SK-MEL-2 melanoma; SNB-75 CNS; EKVX NSCLC.
What all share (experiment): NCI anticancer screen, dose series, 48 h

Structures are written as SMILES.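 A five-concentration, 48-hour dose response in 96-well plates underlies each endpoint, interpolated linearly between surrounding concentrations. At the GI50, growth is halved. TGI is the concentration that stops growth completely.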

Turning to `CNC(=S)N/N=C/CSC/C=N/NC(=S)NC`, the GI50 in the assay on DU-145 prostate was over 100 µM; in the assay with HS 578T breast, over 100 µM; in the assay with MCF7 breast it was 1.85 µM; with MOLT-4 leukemia, over 100 µM; in the assay with NCI-H226 lung, over 100 µM; with NCI-H460 lung, over 100 µM. In addition, the GI50 with OVCAR-5 ovarian, with SK-MEL-2 melanoma and with SNB-75 CNS was over 100 µM in each case. Also, the TGI in the assay on DU-145 prostate, in the assay on HS 578T breast, with MCF7 breast, in the assay on MOLT-4 leukemia, in the assay on NCI-H226 lung and in the assay with NCI-H460 lung was over 100 µM throughout. The TGI in the assay on OVCAR-5 ovarian, with SK-MEL-2 melanoma and with SNB-75 CNS was over 100 µM each time.
Turning to `CCN(CC)CCCC(C)Nc1ccnc2cc(OC)ccc12` (centres undefined), the GI50 with DU-145 prostate was 20.6 µM; in the assay with EKVX NSCLC it was 44.9 µM; in the assay on HS 578T breast, 26.3 µM; in the assay on MCF7 breast, over 100 µM; with MOLT-4 leukemia, 25.9 µM; with NCI-H226 lung, 22.2 µM. For the same compound, the values for the GI50 in the assay on NCI-H460 lung, in the assay with OVCAR-5 ovarian and in the assay with SK-MEL-2 melanoma were over 100 µM, 21.2 µM and 24.8 µM, respectively. For the same compound, the TGI in the assay on DU-145 prostate is 44.4 µM; with EKVX NSCLC it was over 100 µM; in the assay on HS 578T breast, 66.3 µM; with MCF7 breast, over 100 µM; in the assay on MOLT-4 leukemia, 74.5 µM; in the assay on NCI-H226 lung, 46.6 µM. The TGI was over 100 µM in the assay on NCI-H460 lung, 50.2 µM with OVCAR-5 ovarian and 52.9 µM in the assay on SK-MEL-2 melanoma.
Consider `CC(=O)Nc1ccc(S(=O)(=O)N2C(=O)CCC2C(=O)Nc2ccccc2)cc1` (centres undefined), for which the GI50 in the assay with DU-145 prostate was 3.46 µM; in the assay on HS 578T breast, 2.71 µM; with MCF7 breast, 0.73 µM; in the assay on MOLT-4 leukemia, 1.96 µM; in the assay with NCI-H226 lung it was 3.16 µM; in the assay on NCI-H460 lung, 0.359 µM. The GI50 in the assay on OVCAR-5 ovarian was 3.16 µM; in the assay with SK-MEL-2 melanoma it was 1.34 µM; in the assay on SNB-75 CNS it was 1.63 µM. Moreover, the TGI in the assay with DU-145 prostate was 19.2 µM; in the assay on HS 578T breast, 36.2 µM; in the assay on MCF7 breast, 14.7 µM; in the assay with MOLT-4 leukemia, 14.5 µM; with NCI-H226 lung, 20.9 µM; in the assay on NCI-H460 lung, 15.3 µM. In addition, the TGI with OVCAR-5 ovarian stood at 20.2 µM; with SK-MEL-2 melanoma it was 9.05 µM; in the assay on SNB-75 CNS, 6.86 µM.
For the compound `COc1cc(C(=O)N[C@@H]2CCCN(C)C2)ccc1Nc1ncc2c(n1)N(C1CCCC1)CC(C)(C)C(=O)N2C`, the GI50 was 0.0488 µM with DU-145 prostate; 1.11 µM in the assay on EKVX NSCLC; 0.188 µM with HS 578T breast; 0.0278 µM with MCF7 breast; 0.0417 µM in the assay on MOLT-4 leukemia; 0.633 µM in the assay with NCI-H226 lung. In addition, the figures for the GI50 with NCI-H460 lung, in the assay with OVCAR-5 ovarian and in the assay on SNB-75 CNS were 0.04 µM, 0.0608 µM and 0.134 µM, respectively. Further, the TGI with DU-145 prostate came out at 19.6 µM; in the assay with EKVX NSCLC it was 24 µM; in the assay on HS 578T breast, 19.9 µM; with MCF7 breast, 11.6 µM; in the assay on MOLT-4 leukemia, 3.89 µM; with NCI-H226 lung, 21.9 µM. Further, the TGI stood at 14.8 µM in the assay with NCI-H460 lung, 17.5 µM with OVCAR-5 ovarian and 4.74 µM in the assay with SNB-75 CNS.
Turning to `CC[C@@]12CC(C(=O)OC)=C3Nc4ccccc4[C@@]34CCN(C[C@H]3O[C@H]31)[C@@H]24`, the GI50 was over 100 µM in the assay on DU-145 prostate; 40.2 µM in the assay on EKVX NSCLC; 25.4 µM in the assay on HS 578T breast; 46 µM in the assay on MCF7 breast; 27.9 µM in the assay on MOLT-4 leukemia; 46.6 µM with NCI-H460 lung. For the same compound, the GI50 in the assay with OVCAR-5 ovarian is over 100 µM; in the assay with SK-MEL-2 melanoma, 25.1 µM; with SNB-75 CNS it was 14.8 µM. Further, the TGI with DU-145 prostate, with EKVX NSCLC, with HS 578T breast, with MCF7 breast, with MOLT-4 leukemia and with NCI-H460 lung was over 100 µM each time. Also, the TGI in the assay with OVCAR-5 ovarian is over 100 µM; in the assay with SK-MEL-2 melanoma, over 100 µM; in the assay with SNB-75 CNS it was 64.9 µM.
`COc1cc(F)c(F)c(F)c1C(=O)c1cnc(NC2CCN(S(C)(=O)=O)CC2)nc1N`: the GI50 in the assay on DU-145 prostate is 2.58 µM; in the assay on HS 578T breast, 3.17 µM; in the assay with MCF7 breast, 0.166 µM; with MOLT-4 leukemia, 0.845 µM; in the assay on NCI-H226 lung it was 1.86 µM; in the assay on NCI-H460 lung it was 0.428 µM. Also, the GI50 with OVCAR-5 ovarian is 1.45 µM; in the assay with SK-MEL-2 melanoma, 3.02 µM; with SNB-75 CNS, 3.65 µM. For the same compound, the TGI in the assay on DU-145 prostate is over 22 µM; in the assay on HS 578T breast, 18.1 µM; in the assay on MCF7 breast, over 25 µM; with MOLT-4 leukemia, 11.4 µM; with NCI-H226 lung it was 15.7 µM; in the assay on NCI-H460 lung, over 25 µM. The TGI with OVCAR-5 ovarian is over 25 µM; in the assay with SK-MEL-2 melanoma it was 7.46 µM; in the assay on SNB-75 CNS, 8.75 µM.
As to `N#CCC1CCN(c2nc(Nc3ccc(N4CCC(O)CC4)cc3)c3c(=O)[nH]ncc3n2)CC1`, the GI50 with DU-145 prostate was 0.547 µM; with EKVX NSCLC it was 1.85 µM; with HS 578T breast, 0.22 µM; in the assay on MCF7 breast, 0.297 µM; in the assay on MOLT-4 leukemia, 0.652 µM; with NCI-H226 lung, 0.639 µM. In addition, the GI50 with NCI-H460 lung was 0.692 µM; in the assay on OVCAR-5 ovarian it was 1.22 µM; in the assay on SNB-75 CNS, 0.337 µM. Also, the TGI with DU-145 prostate was over 100 µM; with EKVX NSCLC, over 100 µM; with HS 578T breast it was 1.23 µM; with MCF7 breast, over 100 µM; in the assay on MOLT-4 leukemia it was over 100 µM; in the assay on NCI-H226 lung, over 100 µM. Also, the TGI was over 100 µM in the assay on NCI-H460 lung, over 100 µM in the assay with OVCAR-5 ovarian and 2.43 µM with SNB-75 CNS.
On to `Nc1ncnc2c1ncn2C1SC(CO)C(O)C1O` (centres undefined), for which the GI50 with DU-145 prostate is 6.93 µM; in the assay on HS 578T breast, 70.5 µM; in the assay on MCF7 breast, 3.21 µM; in the assay on MOLT-4 leukemia, over 100 µM; with NCI-H226 lung, 66.5 µM; with NCI-H460 lung it was 7.88 µM. Also, the GI50 with OVCAR-5 ovarian was over 100 µM; in the assay with SK-MEL-2 melanoma, 78.8 µM; in the assay on SNB-75 CNS it was 16.8 µM. Moreover, the TGI in the assay on DU-145 prostate is 26.7 µM; in the assay on HS 578T breast it was over 100 µM; with MCF7 breast it was 31.6 µM; with MOLT-4 leukemia, over 100 µM; in the assay with NCI-H226 lung, over 100 µM; in the assay on NCI-H460 lung, 37.9 µM. Besides, the results for the TGI with OVCAR-5 ovarian, with SK-MEL-2 melanoma and with SNB-75 CNS were over 100 µM, over 100 µM and 46.3 µM, respectively.
